Source: patent publication US20070292351A1, “Assay for efficacy of histone deacetylase inhibitors” (Methylgene, Inc., priority 2006, published 2007)

Experiments:
[1] = system: human colon cancer HCT15 cells; test: RT-PCR of MT3 transcription in HCT15 cells; assay type: cell-based
Description: FIG. 1. […] HCT15 cells were treated with HDAC inhibitors or indicated compounds for 16 hours before total RNAs are isolated. RNA levels of MT3 were measured by real-time RT-PCR and are subsequently normalized against β-actin.
Colon cancer HCT15 cells were exposed to 1 μM MGCD0103 for various amounts of time, and MT3 RNA levels were monitored by conventional semi-quantitative RT-PCR. Maximal induction is achieved between 8 h and 24 h of exposure and maintained through 72 h.
(§1) RNA was extracted from 8×10^6 cells using the Qiagen RNeasy Mini kit (cat#74106, Qiagen, Missisauga Ont.) following the manufacturer's instructions. RT reaction was performed using the Expand Reverse Transcriptase kit from Roche (Cat#1 785 834 Roche Applied Biosciences, Laval, Que) with 1 μg total RNA together with 1 μl oligo(dT) primer (cat#y01212, Invitrogen-Canada, Burlington, Ont). cDNA was synthesized using an Eppendorf Mastercycler gradient PCR apparatus (Brinkmann Instruments Canada LTD., Mississauga, Ontario), using a two cycle protocol. For the 1st cycle reaction mixture (0.5 μl H2O, 4 μl of 5× Buffer, 2 μl DTT, 2 ul of 10 mM dNTPs, 0.5 μl RNAsin (cat#N211B, Promega, Fisher Scientific, Whitby, Ont.) and […] of the Expand Reverse Transcriptase (Cat#1785834, Roche, Laval, Quebec)) was incubated at 65° C. for 10 minutes and then set on ice. A second cycle was performed at 42° C. for 1 hour. The resulting cDNA products were kept at 4° C. until used.
One ul of the resulting cDNA was used for every amplification reaction with 18.9 ul H2O, 1.25 ul of 10 mM dNTPs, 0.5 ul of each primer pair, 2.5 ul of 10× Buffer. The PCR reaction was carried out in an Eppendorf Mastercycler gradient. The sequences of the primers used for the amplification of selected biomarkers, as well as the details of the PCR reaction cycles are featured below. All buffers came from Expand Long Template PCR system (Roche, Laval, Quebec, Cat#11681842001). All primers were synthesized by Invitrogen (Invitrogen-Canada, Burlington, Ont.)
Analysis of transcripts was performed using STORM 860 (Amersham Biosciences, Baie d'Urfe, Qubec). Transcription of genes was normalized to transcription of actin, which was performed in the same RT-PCR reaction. The relative expression level of gense was normalized to baseline signals.
(§2) Quantitative PCR with SYBR Green I detection with Mastercycler® ep realplex (Eppendorf) was performed using LightCycler® 480 SYBR Green I Master (Roche Diagnostics). SYBR Green I assays were performed with 600 nM primers. All other reaction conditions were as described by the manufacturer. Amplification conditions were 5 minutes of initial denaturation at 95° C., followed by 40 cycles of each 15 seconds at 95° C., 15 seconds at 63.4° C., 20 seconds at 68° C., a melting curve from 60° C. to 95° C. was recorded. Quantification was performed using Pfaffl method, a relative quantification method in real-time PCR (Nucleic Acids Research 2001 29:2002-2007). Primers were synthesized by Invitrogen (Invitrogen-Canada, Burlington, Ont.).

Jurkat cells = test: IL-6 transcription in Jurkat cells; assay type: cell-based, human; settings: 24 hours (FIG. 14)
Description: as §2

Jurkat-T leukemic cells = test: RT-PCR of MT3 transcription in Jurkat-T cells; assay type: cell-based, human; settings: 16 h, semi-quantitative RT-PCR (FIG. 2)
Description: as §1
One ul of the resulting cDNA was used for every amplification reaction with 18.9 ul H2O, 1.25 ul of 10 mM dNTPs, 0.5 ul of each primer pair, 2.5 ul of 10× Buffer. The PCR reaction was carried out in an Eppendorf Mastercycler gradient. The sequences of the primers used for the amplification of selected biomarkers, as well as the details of the PCR reaction cycles are featured below. […]

[2] = system: peripheral white blood cells of patients; test: Real time RT-PCR of gene transcription in patients' peripheral white cells in vivo; parameters: species or system human
Description: FIG. 8. Induction of MT3 (A) and AREG (B) transcription in vivo in patients with solid tumor who received treatment with MGCD0103 for one week (three doses per week). At day 8 (72 h after the third dose), peripheral white blood cells were isolated and RNA extracted and analyzed by qRT-PCR
FIG. 12. Induction of transcription of three tumor suppressor genes, BTG1, TNFSF9 and p21 in peripheral white cells from Patient A in vivo as determined by real time RT-PCR. Note that both BTG1 and TNFSF9 were identified in FIG. 11 using microarray expression analysis and their expression is confirmed in vivo by real time RT-PCR.
FIG. 13. Induction of transcription of three tumor suppressor genes, BTG1, TNFSF9 and p21 in peripheral white cells from a MDS patient with clinical response (Patient E) and a MDS patient without response (Patient F) in vivo as determined by real time RT-PCR. Blood samples were drawn 48 hr post the 2nd dose in cycle 1.
(§3) Whole blood from either consenting healthy volunteers or consenting patients was centrifuged at 2500 rpm for 10 minutes at ambient temperature in a Sorvall RT-7 centrifuge (Mandel Scientific Co., Guelph, Ontario). Plasma was removed and buffy coat was collected. Five volumes of Erythrocyte Lysis Buffer (EL) (Qiagen Canada Inc., Mississauga, Ontario) were added into buffy coat. Buffy coat was incubated on ice for 20 minutes before it was centrifuged at 400 g for 10 minutes at 4° C. Supernatant was removed and buffy coat was washed twice with EL buffer and re-centrifuged. Buffy coat was resuspended in RPMI media and cells were counted with trypan blue exclusion. To isolate PBMCs, buffy coat cells were centrifuged over Lymphoprep (Axis-Shield, 1114544), and any remaining erythrocytes in the sample were lysed by treatment with EL lysis buffer (Qiagen, 79217). The cell pellets are washed and then re-suspended in RPMI containing 10% FBS.
as §2
Human patients with either solid tumors or leukemia/MDS diseases were enrolled in phase I studies with consensus forms. […]

peripheral white cells = test: Cytokine/chemokine transcription in peripheral white cells of AML patients treated in vivo; parameters: species or system human; settings: for induction of transcription of IL-6, IL-8, IL-1b, MIP1b: in vivo
Description: FIG. 15 Induction of transcription of IL-6, IL-8, IL-1b, MIP1b cytokine/chemokines by MGCD0103 in peripheral white cells ex vivo from a MDS patient and in vivo in an AML patient with response (Patient J).
as §3
Human patients with either solid tumors or leukemia/MDS diseases were enrolled in phase I studies with consensus forms. MGCD0103 were dosed into patients orally every other day (day 1, day 3, day 5 […]). Blood samples were withdrawled by using the Vacutainer sodium-heparin blood collection tubes (Becton Dickinson Laboratories, Franklin Lakes, N.J.) and shipped to the test site within 24 hours on ice-pack. Baseline samples were drawn immediately prior to the first drug dose, while the 24 hour samples were drawn at 24 hours post the first drug dose. The 48 hours samples were drawn at 48 hours post the first dose. For the 1 week samples, blood was drawn 72 hours after day 5 dose (3 accumulated doses during week 1).

## Nc1ccccc1NC(=O)c1ccc(CNc2nccc(-c3cccnc3)n2)cc1 [MGCD0103]
[1]; 1 uM (FIG. 3)
  Time-dependent induction of MT3 transcription: Time-dependent induction
  time through which maximal MT3 induction is maintained: ≥ 72 h
[1]; 16 h, semi-quantitative RT-PCR (FIG. 2)
  Dose-dependent induction of MT3 transcription: Dose-dependent induction
[1]; 16 hours, real-time RT-PCR normalized against beta-actin (FIG. 1)
  Induction of transcription of MT3: induced
Jurkat cells
  dose-dependent induction of IL-6 transcription: dose-dependent induction
Jurkat-T leukemic cells
  Dose-dependent induction of MT3 transcription: Dose-dependent induction
[2]; MDS patient with clinical response (Patient E), 48 hr post 2nd dose in cycle 1 (FIG. 13)
  Induction of transcription of BTG1, TNFSF9 and p21: Induction
[2]; patients with solid tumors, one week (three doses per week), day 8, qRT-PCR (FIG. 8A)
  induction of MT3 transcription in vivo: induction
[2]; patients with solid tumors, one week (three doses per week), day 8, qRT-PCR (FIG. 8B)
  induction of AREG transcription in vivo: induction
[2]; peripheral white cells, AML Patient A, real time RT-PCR (FIG. 12)
  Induction of transcription of BTG1, TNFSF9 and p21: Induction
Peripheral white cells; ex vivo/in vivo in patients (data not shown)
  expression level of other cytokine/chemokines: either decreased or remained unmodified
Peripheral white cells; AML patient with response (Patient A) (FIG. 15)
  induction of transcription of IL-6, IL-8, IL-1b, MIP1b: induction
Peripheral white cells; two AML patients without clinical response (Patient B, C) (FIG. 15)
  induction of transcription of IL-6, IL-8, IL-1b, MIP1b: No such induction
